Non-standard residues stand in square brackets, D forms with d. Residues, ends and D or L forms follow the SMILES beside them. ξ: configuration not given here. *: point of attachment. Phe(4-NO2) = N[C@@H](Cc1ccc([N+](=O)[O-])cc1)C(=O)O; Tyr(3,5-Br2) = N[C@@H](Cc1cc(Br)c(O)c(Br)c1)C(=O)O; Tyr(3,5-I2) = N[C@@H](Cc1cc(I)c(O)c(I)c1)C(=O)O; Phe(4-Cl) = N[C@@H](Cc1ccc(Cl)cc1)C(=O)O; 1Nal = N[C@@H](Cc1cccc2ccccc12)C(=O)O; 2Nal = N[C@@H](Cc1ccc2ccccc2c1)C(=O)O; Cha = N[C@@H](CC1CCCCC1)C(=O)O; Ile(3ξ) = CCC(C)[C@H](N)C(=O)O; Phg = N[C@H](C(=O)O)c1ccccc1; Nva = CCC[C@H](N)C(=O)O; Cbz = O=C(OCc1ccccc1)*; Boc = CC(C)(C)OC(=O)*
Columns and labels:
[1] = target: T1, 20S proteasome (Oryctolagus cuniculus, UniProt G1T4Q9); experiment: Inhibition of the 20S proteasome (kinetic experiments, Ki); type: biochemical, Rabbit; settings: Table V, miscellaneous tripeptide aldehydes; 20S proteasome
T1 sequence (G1T4Q9 60-263): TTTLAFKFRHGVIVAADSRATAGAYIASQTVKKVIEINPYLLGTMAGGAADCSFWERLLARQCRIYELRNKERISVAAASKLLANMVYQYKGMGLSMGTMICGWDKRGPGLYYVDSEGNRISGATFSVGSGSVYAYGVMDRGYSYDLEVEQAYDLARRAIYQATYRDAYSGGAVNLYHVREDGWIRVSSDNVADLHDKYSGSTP
Text: (§1) Tables I-III summarize results from kinetic experiments that measured the inhibition of the 20S and 26S proteasomes, as well as cathepsin B and calpain. In these tables, Ki values are reported, which are dissociation constants for the equilibrium that is established when enzyme and inhibitor interact to form the enzyme:inhibitor complex.
(§2) The substances and assay conditions are briefly summarized in the footnotes to Table I. MG 101 and MG 102, also known as Calpain Inhibitor I and II, were purchased from Calbiochem as catalogue products.
(§3) Table V summarizes data for the inhibition of the 20S proteasome by various tripeptide aldehyde inhibitors.

[2] = target: T2, 20S Proteasome (Oryctolagus cuniculus, UniProt G1T4Q9); experiment: as above; type: biochemical, Rabbit; design: Ki 20 S; substrate Suc-LLVY-AMC; settings: Rabbit muscle, SDS-activated; substrate Suc-LLVY-AMC
T2 sequence (G1T4Q9 1-263): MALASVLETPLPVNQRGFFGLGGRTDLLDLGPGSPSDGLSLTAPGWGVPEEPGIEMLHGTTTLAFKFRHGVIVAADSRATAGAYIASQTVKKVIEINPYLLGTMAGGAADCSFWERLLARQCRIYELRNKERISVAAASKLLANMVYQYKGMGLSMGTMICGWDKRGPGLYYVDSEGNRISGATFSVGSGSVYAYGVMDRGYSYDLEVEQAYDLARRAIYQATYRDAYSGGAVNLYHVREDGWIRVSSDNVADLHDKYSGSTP
Text: as §1, §2, §3

[3] = target: calpain, 80 kD catalytic subunit; experiment: Inhibition of calpain (Ki); type: biochemical; settings: Rabbit muscle, substrate Suc-LLVY-AMC, [CaCl2] = 1 mM, [DTT] = 2 mM, pH 7.8, 20° C.
Text: as §1

[4] = target: T3, 26S proteasome (Oryctolagus cuniculus, UniProt G1T4Q9); experiment: Inhibition of the 26S proteasome (kinetic experiments, Ki); type: biochemical; settings: Rabbit muscle; substrate Suc-LLVY-AMC; [Mg:ATP] = 2 mM
T3 sequence (G1T4Q9 1-263): T2 sequence (G1T4Q9 1-263)
Text: as §1, §2

[5] = target: T4, cathepsin B (Bos taurus, UniProt P07688); experiment: Inhibition of cathepsin B (Ki); type: biochemical; settings: Bovine spleen; substrate Z-RR-AMC; [DTT] = 2 mM, [EDTA] = 5 mM, pH 5.5, 37° C.; read-out: Ki Cat B
T4 construct: Bovine spleen; Substrate: Z-RR-AMC; from tissue; host or cells: bovine spleen
Text: as §1

Row | SMILES | Ki [1] [nM] | Ki [2] [nM] | Ki [3] [nM] | Ki [4] [nM] | Ki [5] [nM]
1 | CC(C)C[C@@H](C=O)NC(=O)[C@H](Cc1cccc2ccccc12)NC(=O)[C@H](Cc1cccc2ccccc12)NC(=O)OCc1ccccc1 [MG 166] (Cbz-[1Nal]-[1Nal]-Leu-aldehyde) | 0.035 | – | – | – | –
2 | CC(C)C[C@H](NC(=O)OCc1ccccc1)C(=O)N[C@@H](CC(C)C)C(=O)N[C@H](C=O)c1ccccc1 [MG 133] (Cbz-Leu-Leu-[Phg]-aldehyde) | 470 | – | – | – | –
3 | CC(C)C[C@H](NC(=O)OCc1ccccc1)C(=O)N[C@@H](CC(C)C)C(=O)N[C@H](C=O)C(C)C [MG 120] (Cbz-Leu-Leu-Val-aldehyde) | – | 94 | 14 | 560 | 36
4 | CCC(C)[C@@H](C=O)NC(=O)[C@H](CC(C)C)NC(=O)[C@H](CC(C)C)NC(=O)OCc1ccccc1 (stereo partly drawn) [MG 134] (Cbz-Leu-Leu-[Ile(3ξ)]-aldehyde) | 100 | – | – | – | –
5 | CC(C)C[C@@H](C=O)NC(=O)[C@H](CC(C)C)NC(=O)[C@H](Cc1ccc2ccccc2c1)NC(=O)OCc1ccccc1 [MG 165] (Cbz-[2Nal]-Leu-Leu-aldehyde) | 0.24 | – | – | – | –
6 | CC(C)C[C@H](NC(=O)OCc1ccccc1)C(=O)N[C@@H](CC(C)C)C(=O)N[C@H](C=O)Cc1c[nH]c2ccccc12 [MG 151] (Cbz-Leu-Leu-Trp-aldehyde) | 10 | – | – | – | –
7 | CC(C)C[C@H](NC(=O)OCc1ccccc1)C(=O)N[C@@H](CC(C)C)C(=O)N[C@H](C=O)Cc1ccc(Cl)cc1 [MG 158] (Cbz-Leu-Leu-[Phe(4-Cl)]-aldehyde) | 7 | – | – | – | –
8 | CC(C)C[C@H](NC(=O)OCc1ccccc1)C(=O)N[C@@H](CC(C)C)C(=O)N[C@H](C=O)Cc1cc(I)c(O)c(I)c1 [MG 161] (Cbz-Leu-Leu-[Tyr(3,5-I2)]-aldehyde) | 64 | – | – | – | –
9 | CC(C)C[C@H](NC(=O)OCc1ccccc1)C(=O)N[C@@H](CC(C)C)C(=O)N[C@H](C=O)CC1CCCCC1 [MG 129] (Cbz-Leu-Leu-[Cha]-aldehyde) | 60 | – | – | – | –
10 | CC(C)C[C@H](NC(=O)OCc1ccccc1)C(=O)N[C@@H](CC(C)C)C(=O)N[C@@H](C)C=O [MG 111] (Cbz-Leu-Leu-Ala-aldehyde) | – | 210 | 11 | 690 | 6
11 | CC(C)C[C@H](NC(=O)OCc1ccccc1)C(=O)N[C@@H](CC(C)C)C(=O)N[C@H](C=O)Cc1ccc([N+](=O)[O-])cc1 [MG 135] (Cbz-Leu-Leu-[Phe(4-NO2)]-aldehyde) | 290 | – | – | – | –
12 | CCC[C@@H](C=O)NC(=O)[C@H](CC(C)C)NC(=O)[C@H](CC(C)C)NC(=O)OCc1ccccc1 [MG 115, Z-Leu-Leu-Nva-H] (Cbz-Leu-Leu-[Nva]-aldehyde) | – | 21 | 10 | 78 | 10
13 | CC(=O)N[C@@H](CC(C)C)C(=O)N[C@@H](CC(C)C)C(=O)N[C@H](C=O)CC(C)C [MG 154] (Ac-Leu-Leu-Leu-aldehyde) | 75 | – | – | – | –
14 | CC(C)C[C@H](NC(=O)OCc1ccccc1)C(=O)N[C@@H](CC(C)C)C(=O)N[C@H](C=O)Cc1cc(Br)c(O)c(Br)c1 [MG 160] (Cbz-Leu-Leu-[Tyr(3,5-Br2)]-aldehyde) | 51 | – | – | – | –
15 | CC(C)C[C@@H](C=O)NC(=O)[C@H](CC(C)C)NC(=O)[C@H](CC(C)C)NC(=O)OC(C)(C)C [MG 155] (Boc-Leu-Leu-Leu-aldehyde) | 54 | – | – | – | –
16 | CC(C)C[C@H](NC(=O)OCc1ccccc1)C(=O)N[C@@H](CC(C)C)C(=O)N[C@H](C=O)Cc1ccc2ccccc2c1 [MG 121, Z-Leu-Leu-Nal-H] (Cbz-Leu-Leu-[2Nal]-aldehyde) | – | 25 | 62 | 70 | 73
17 | CCC[C@@H](C=O)NC(=O)[C@H](CC(C)C)NC(=O)[C@H](Cc1cccc2ccccc12)NC(=O)OCc1ccccc1 [MG 142] (Cbz-[1Nal]-Leu-[Nva]-aldehyde) | 0.3 | – | – | – | –
18 | CSCC[C@@H](C=O)NC(=O)[C@H](CC(C)C)NC(=O)[C@H](CC(C)C)NC(C)=O [MG 102, reference compound] (Ac-Leu-Leu-Met-aldehyde) | – | 1000 | 120 | 28000 | 94

— patent publication US20040097420A1, “Proteasome regulation of NF-kB activity” (Harvard College, priority 1994, published 2004)
